In patent publication US20200016136A1 (VIIV HEALTHCARE UK (NO. 5) LIMITED, priority 2017, published 2020):

Tested on: NL-RLuc virus (recombinant NL4-3 HIV with Renilla Luciferase gene)
Test: Inhibition of HIV replication (NL-RLuc virus in MT-2 cells, luciferase readout)
Format: cell-based, Human immunodeficiency virus (HIV)
Settings: MT2, 120 h
How it was run: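 EC50 derived via median effect equation from at least 2 experiments, using luciferase expression as virus-growth readout. Replication-competent NL-RLuc reporter virus (nef partly replaced by Renilla luciferase) infected MT-2 cells with serial compound dilutions; 5-day incubation in RPMI 1640 plus 10% FBS.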

Compound	EC50
Cc1nc(C)c([C@H](OC(C)(C)C)C(=O)O)c(N2CCC(C)(C)CC2)c1-c1ccc2c(c1)CCN(c1cc(N3CC(C)CC(C)C3)ncn1)C2 (stereo partly drawn) [Example 137, (2S)-2-(tert-Butoxy)-2-(4-(4,4-dimethylpiperidin-1-yl)-5-(2-(6-(3,5-dimethylpiperidin-1-yl)pyrimidin-4-yl)-1,2,3,4-tetrahydroisoquinolin-6-yl)-2,6-dimethylpyridin-3-yl)acetic Acid]	7 nM
Cc1nc(C)c([C@H](OC(C)(C)C)C(=O)O)c(N2CCC(C)(C)CC2)c1-c1ccc2c(c1)CCN(c1nccc(O)n1)C2 [Example 80, (S)-2-(tert-Butoxy)-2-(4-(4,4-dimethylpiperidin-1-yl)-5-(2-(4-hydroxypyrimidin-2-yl)-1,2,3,4-tetrahydroisoquinolin-6-yl)-2,6-dimethylpyridin-3-yl)acetic Acid]	380 nM
Cc1ncc(-c2ccc3c(c2)CCN(c2nccc(N4CCOCC4)n2)C3)c(N2CCC(C)(C)CC2)c1[C@H](OC(C)(C)C)C(=O)O [Example 26, (2S)-2-(tert-Butoxy)-2-[4-(4,4-dimethylpiperidin-1-yl)-2-methyl-5-{2-[4-(morpholin-4-yl)pyrimidin-2-yl]-1,2,3,4-tetrahydroisoquinolin-6-yl}pyridin-3-yl]acetic Acid]	0.8 nM
CC1(C)CCN(c2c(-c3ccc4c(c3)CCN(c3nccc(-c5cccnc5)n3)C4)c(N)nc(Cl)c2[C@H](OC(C)(C)C)C(=O)O)CC1 [Example 101, (S)-2-(6-Amino-2-chloro-4-(4,4-dimethylpiperidin-1-yl)-5-(2-(4-(pyridin-3-yl)pyrimidin-2-yl)-1,2,3,4-tetrahydroisoquinolin-6-yl)pyridin-3-yl)-2-(tert-butoxy)acetic Acid]	2 nM
Cc1nc(C)c([C@H](OC(C)(C)C)C(=O)O)c(N2CCC(C)(C)CC2)c1-c1ccc2c(c1)CCN(c1cc(N3CCOCC3)nc(N3CCOCC3)n1)C2 [Example 86, (S)-2-(tert-Butoxy)-2-(4-(4,4-dimethylpiperidin-1-yl)-5-(2-(2,6-dimorpholinopyrimidin-4-yl)-1,2,3,4-tetrahydroisoquinolin-6-yl)-2,6-dimethylpyridin-3-yl)acetic Acid]	4 nM
CC1(C)CCN(Cc2nc(Cl)c([C@H](OC(C)(C)C)C(=O)O)c(N3CCC(C)(C)CC3)c2-c2ccc3c(c2)CCN(c2ncnc4c2oc2ncccc24)C3)CC1 [Example 114, (S)-2-(tert-Butoxy)-2-(2-chloro-4-(4,4-dimethylpiperidin-1-yl)-6-((4,4-dimethylpiperidin-1-yl)methyl)-5-(2-(pyrido[3′,2′:4,5]furo[3,2-d]pyrimidin-4-yl)-1,2,3,4-tetrahydroisoquinolin-6-yl)pyridin-3-yl)acetic Acid]	0.1 nM
CC1(C)CCN(c2c(-c3ccc4c(c3)CCN(c3ncnc5c3oc3ncccc35)C4)c(CN3CCC4(CCC4)CC3)nc(Cl)c2[C@H](OC(C)(C)C)C(=O)O)CC1 [Example 152, (S)-2-(6-((7-Azaspiro[3.5]nonan-7-yl)methyl)-2-chloro-4-(4,4-dimethylpiperidin-1-yl)-5-(2-(pyrido[3′,2′:4,5]furo[3,2-d]pyrimidin-4-yl)-1,2,3,4-tetrahydroisoquinolin-6-yl)pyridin-3-yl)-2-(tert-butoxy)acetic Acid]	0.1 nM
Cc1nc(C)c([C@H](OC(C)(C)C)C(=O)O)c(N2CCC(C)(C)CC2)c1-c1ccc2c(c1)CCN(c1ccnc(N3CCC(CCO)CC3)n1)C2 [Example 144, (S)-2-(tert-Butoxy)-2-(4-(4,4-dimethylpiperidin-1-yl)-5-(2-(2-(4-(2-hydroxyethyl)piperidin-1-yl)pyrimidin-4-yl)-1,2,3,4-tetrahydroisoquinolin-6-yl)-2,6-dimethylpyridin-3-yl)acetic Acid]	3 nM
Cc1nc(C)c([C@H](OC(C)(C)C)C(=O)O)c(N2CCC(C)(C)CC2)c1-c1ccc2c(c1)CCN(c1cc(N3CCC(N4CCCCC4)CC3)ncn1)C2 [Example 135, (S)-2-(5-(2-(6-([1,4′-Bipiperidin]-1′-yl)pyrimidin-4-yl)-1,2,3,4-tetrahydroisoquinolin-6-yl)-4-(4,4-dimethylpiperidin-1-yl)-2,6-dimethylpyridin-3-yl)-2-(tert-butoxy)acetic Acid]	19 nM
Cc1nc(C)c([C@H](OC(C)(C)C)C(=O)O)c(N2CCC(C)(C)CC2)c1-c1ccc2c(c1)CCN(c1cncc(N3CCOCC3)n1)C2 [Example 74, (S)-2-(tert-Butoxy)-2-(4-(4,4-dimethylpiperidin-1-yl)-2,6-dimethyl-5-(2-(6-morpholinopyrazin-2-yl)-1,2,3,4-tetrahydroisoquinolin-6-yl)pyridin-3-yl)acetic Acid]	1 nM
Cc1cccc(Cl)c1CN1CCc2cc(-c3c(CNCCCc4ccccc4)nc(C)c([C@H](OC(C)(C)C)C(=O)O)c3N3CCC(C)(C)CC3)ccc2C1 [Example 154, (S)-2-(tert-Butoxy)-2-(5-(2-(2-chloro-6-methylbenzyl)-1,2,3,4-tetrahydroisoquinolin-6-yl)-4-(4,4-dimethylpiperidin-1-yl)-2-methyl-6-(((3-phenylpropyl)amino)methyl)pyridin-3-yl)acetic Acid]	97 nM
Cc1nc(C)c([C@H](OC(C)(C)C)C(=O)O)c(N2CCC(C)(C)CC2)c1-c1ccc2c(c1)CCN(c1cc(N3CCCC(C)(C)C3)ncn1)C2 [Example 139, (S)-2-(tert-Butoxy)-2-(4-(4,4-dimethylpiperidin-1-yl)-5-(2-(6-(3,3-dimethylpiperidin-1-yl)pyrimidin-4-yl)-1,2,3,4-tetrahydroisoquinolin-6-yl)-2,6-dimethylpyridin-3-yl)acetic Acid]	4 nM
Cc1nc(N2CCc3cc(-c4c(C)nc(C)c([C@H](OC(C)(C)C)C(=O)O)c4N4CCC(C)(C)CC4)ccc3C2)c2oc3ccccc3c2n1 [Example 128, (S)-2-(tert-Butoxy)-2-(4-(4,4-dimethylpiperidin-1-yl)-2,6-dimethyl-5-(2-(2-methylbenzofuro[3,2-d]pyrimidin-4-yl)-1,2,3,4-tetrahydroisoquinolin-6-yl)pyridin-3-yl)acetic Acid]	2 nM
Cc1nc(C)c([C@H](OC(C)(C)C)C(=O)O)c(N2CCC(C)(C)CC2)c1-c1ccc2c(c1)CCN(c1ccc(C(F)(F)F)cn1)C2 [Example 143, (S)-2-(tert-butoxy)-2-(4-(4,4-dimethylpiperidin-1-yl)-2,6-dimethyl-5-(2-(5-(trifluoromethyl)pyridin-2-yl)-1,2,3,4-tetrahydroisoquinolin-6-yl)pyridin-3-yl)acetic Acid]	14 nM
Cc1cccc(Cl)c1CN1CCc2cc(-c3c(O)nc(C)c([C@H](OC(C)(C)C)C(=O)O)c3N3CCC(C)(C)CC3)ccc2C1 [Example 1, (S)-2-(tert-Butoxy)-2-(5-(2-(2-chloro-6-methylbenzyl)-1,2,3,4-tetrahydroisoquinolin-6-yl)-4-(4,4-dimethylpiperidin-1-yl)-2-methyl-6-oxo-1,6-dihydropyridin-3-yl)acetic Acid]	10 nM
Cc1cccc(N2CCc3cc(-c4c(C)nc(C)c([C@H](OC(C)(C)C)C(=O)O)c4N4CCC(C)(C)CC4)ccc3C2)n1 [Example 89, (S)-2-(tert-Butoxy)-2-(4-(4,4-dimethylpiperidin-1-yl)-2,6-dimethyl-5-(2-(6-methylpyridin-2-yl)-1,2,3,4-tetrahydroisoquinolin-6-yl)pyridin-3-yl)acetic Acid]	3 nM
